Measured values as given in patent US10758534B2 (Vertex Pharmaceuticals Incorporated, priority 2014, dated 2020).

Target: T1, F508del (Homo sapiens, UniProt P13569, DEL508-508)
T1 construct: expressed in transfected cells
Test: Protocol 1: membrane potential optical assay (FLIPR III, voltage sensing dye), identification of potentiator compounds
Format: cell-based
Conditions: Table 3, compounds of Table 1
Excerpt: Membrane Potential Optical Methods for Assaying F508del Modulation Properties of Compounds
The assay utilizes fluorescent voltage sensing dyes to measure changes in membrane potential using a fluorescent plate reader (e.g., FLIPR III, Molecular Devices, Inc.) as a readout for increase in functional F508del in NIH 3T3 cells. The driving force for the response is the creation of a chloride ion gradient in conjunction with channel activation by a single liquid addition step after the cells have previously been treated with compounds and subsequently loaded with a voltage sensing dye.
Identification of Potentiator Compounds
To identify potentiators of F508del, a double-addition HTS assay format was developed. This HTS assay utilizes fluorescent voltage sensing dyes to measure changes in membrane potential on the FLIPR III as a measurement for increase in gating (conductance) of F508del in temperature-corrected F508del NIH 3T3 cells. The driving force for the response is a Cl^− ion gradient in conjunction with channel activation with forskolin in a single liquid addition step using a fluorescent plate reader such as FLIPR III after the cells have previously been treated with potentiator compounds (or DMSO vehicle control) and subsequently loaded with a redistribution dye.
Bath Solution #1: (in mM) NaCl 160, KCl 4.5, CaCl2 2, MgCl2 1, HEPES 10, pH 7.4 with NaOH.
Chloride-free bath solution: Chloride salts in Bath Solution #1 (above) are substituted with gluconate salts.
NIH3T3 mouse fibroblasts stably expressing F508del are used for optical measurements of membrane potential. The cells are maintained at 37° C. in 5% CO2 and 90% humidity in Dulbecco's modified Eagle's medium supplemented with 2 mM glutamine, 10% fetal bovine serum, 1×NEAA, β-ME, 1× pen/strep, and 25 mM HEPES in 175 cm^2 culture flasks. For all optical assays, the cells were seeded at ˜20,000/well in 384-well matrigel-coated plates and cultured for 2 hrs at 37° C. before culturing at 27° C. for 24 hrs. for the potentiator assay. For the correction assays, the cells are cultured at 27° C. or 37° C. with and without compounds for 16-24 hours.

T1 sequence (P13569 with tags, fused parts or gaps DEL508-508): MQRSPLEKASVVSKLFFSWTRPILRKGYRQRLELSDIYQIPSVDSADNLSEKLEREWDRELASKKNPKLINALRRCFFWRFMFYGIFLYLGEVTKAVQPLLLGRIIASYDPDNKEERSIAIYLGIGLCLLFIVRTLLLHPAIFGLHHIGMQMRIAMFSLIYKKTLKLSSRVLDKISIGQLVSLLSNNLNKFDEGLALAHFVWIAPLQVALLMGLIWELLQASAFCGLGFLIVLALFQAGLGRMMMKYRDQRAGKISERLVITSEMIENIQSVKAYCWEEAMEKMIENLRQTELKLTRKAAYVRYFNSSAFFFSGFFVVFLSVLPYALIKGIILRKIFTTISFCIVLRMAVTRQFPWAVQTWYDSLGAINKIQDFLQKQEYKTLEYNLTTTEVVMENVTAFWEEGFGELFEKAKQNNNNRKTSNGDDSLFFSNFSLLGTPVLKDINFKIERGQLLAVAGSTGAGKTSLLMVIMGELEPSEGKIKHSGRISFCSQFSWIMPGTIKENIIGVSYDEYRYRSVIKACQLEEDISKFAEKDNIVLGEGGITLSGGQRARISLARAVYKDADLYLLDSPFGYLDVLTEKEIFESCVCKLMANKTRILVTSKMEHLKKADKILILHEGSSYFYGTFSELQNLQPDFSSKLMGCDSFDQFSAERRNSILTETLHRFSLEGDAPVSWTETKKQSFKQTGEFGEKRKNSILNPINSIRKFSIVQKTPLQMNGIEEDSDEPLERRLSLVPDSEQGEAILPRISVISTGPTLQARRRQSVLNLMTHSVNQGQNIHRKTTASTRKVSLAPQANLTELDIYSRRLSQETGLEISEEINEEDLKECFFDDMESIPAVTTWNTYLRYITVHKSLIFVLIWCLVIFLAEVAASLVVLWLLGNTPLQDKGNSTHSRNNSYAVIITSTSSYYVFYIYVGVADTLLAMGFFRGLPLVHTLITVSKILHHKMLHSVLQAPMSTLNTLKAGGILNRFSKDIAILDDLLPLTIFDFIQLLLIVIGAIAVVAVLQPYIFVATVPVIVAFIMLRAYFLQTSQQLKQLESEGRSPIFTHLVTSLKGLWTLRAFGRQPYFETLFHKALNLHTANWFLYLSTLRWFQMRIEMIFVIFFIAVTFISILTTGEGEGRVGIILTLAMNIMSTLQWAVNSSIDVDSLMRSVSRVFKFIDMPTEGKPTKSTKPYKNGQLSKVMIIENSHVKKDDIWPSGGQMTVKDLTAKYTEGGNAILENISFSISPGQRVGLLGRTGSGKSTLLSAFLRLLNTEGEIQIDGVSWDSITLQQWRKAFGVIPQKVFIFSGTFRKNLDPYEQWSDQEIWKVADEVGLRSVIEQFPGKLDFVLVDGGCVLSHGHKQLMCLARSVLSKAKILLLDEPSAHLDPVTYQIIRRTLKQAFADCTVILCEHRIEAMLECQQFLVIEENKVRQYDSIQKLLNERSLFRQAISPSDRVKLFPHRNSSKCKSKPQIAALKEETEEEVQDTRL

| EC30 | SMILES |
| --- | --- |
| +++ (“+++” means <3 uM) | Cc1cc(F)ccc1-c1ccc(C(=O)NS(=O)(=O)c2cccc(N)n2)c(N2CC(C)CC2(C)C)n1 (centres unmarked) [Compound 822, N-[(6-amino-2-pyridyl)sulfonyl]-6-(4-fluoro-2-methyl-phenyl)-2-(2,2,4-trimethylpyrrolidin-1-yl)pyridine-3-carboxamide] |
| +++ (“+++” means <3 uM) | Cc1cc(C)c(Oc2nc(C3(C)CC3)ccc2C(=O)NS(=O)(=O)c2cccc(N)c2)c(C)c1 [Compound 826, N-(3-aminophenyl)sulfonyl-6-(1-methylcyclopropyl)-2-(2,4,6-trimethylphenoxy)pyridine-3-carboxamide] |
| +++ (“+++” means <3 uM) | Cc1nc(N(C)CC(C)C)ccc1-c1ccc(C(=O)NS(=O)(=O)c2cccc(N)n2)c(N2CC(C)CC2(C)C)n1 (centres unmarked) [Compound 827, N-[(6-amino-2-pyridyl)sulfonyl]-6-[6-[isobutyl(methyl)amino]-2-methyl-3-pyridyl]-2-(2,2,4-trimethylpyrrolidin-1-yl)pyridine-3-carboxamide] |
| +++ (“+++” means <3 uM) | COc1cc(OC)cc(-c2ccc(C(=O)NS(=O)(=O)c3cccc(N)n3)c(Oc3c(C)cc(C)cc3C)n2)c1 [Compound 828, N-[(6-amino-2-pyridyl)sulfonyl]-6-(3,5-dimethoxyphenyl)-2-(2,4,6-trimethylphenoxy)pyridine-3-carboxamide] |
| +++ (“+++” means <3 uM) | CC(C)(C)c1ccc(C(=O)NS(=O)(=O)c2cccc(N)n2)c(Oc2ccc(F)cc2F)n1 [Compound 829, N-[(6-amino-2-pyridyl)sulfonyl]-6-tert-butyl-2-(2,4-difluorophenoxy)pyridine-3-carboxamide] |
| +++ (“+++” means <3 uM) | COc1cc(F)ccc1-c1ccc(C(=O)NS(=O)(=O)c2cccc(N)n2)c(Oc2c(C)cc(C)cc2C)n1 [Compound 830, N-[(6-amino-2-pyridyl)sulfonyl]-6-(4-fluoro-2-methoxy-phenyl)-2-(2,4,6-trimethylphenoxy)pyridine-3-carboxamide] |
| +++ (“+++” means <3 uM) | CCc1ccc(-c2ccc(C(=O)NS(=O)(=O)c3ccc[nH]c3=O)c(Oc3c(C)cc(C)cc3C)n2)cc1 [Compound 831, 6-(4-ethylphenyl)-N-[(2-oxo-1H-pyridin-3-yl)sulfonyl]-2-(2,4,6-trimethylphenoxy)pyridine-3-carboxamide] |
| +++ (“+++” means <3 uM) | COc1cccc(-c2nc(N3CC(C)CC3(C)C)c(C(=O)NS(=O)(=O)c3cccc(N)n3)cc2C)c1 (centres unmarked) [Compound 833, N-[(6-amino-2-pyridyl)sulfonyl]-6-(3-methoxyphenyl)-5-methyl-2-(2,2,4-trimethylpyrrolidin-1-yl)pyridine-3-carboxamide] |
| ++ (“++” means between 3 uM and 10 uM) | CCOc1cc(F)cc(-c2ccc(C(=O)NS(=O)(=O)c3ccc[nH]c3=O)c(Oc3c(C)cc(C)cc3C)n2)c1 [Compound 835, 6-(3-ethoxy-5-fluoro-phenyl)-N-[(2-oxo-1H-pyridin-3-yl)sulfonyl]-2-(2,4,6-trimethylphenoxy)pyridine-3-carboxamide] |
| ++ (“++” means between 3 uM and 10 uM) | COc1ccc(-c2ccc(C(=O)NS(=O)(=O)c3ccc[nH]c3=O)c(Oc3c(C)cc(C)cc3C)n2)c(F)c1 [Compound 839, 6-(2-fluoro-4-methoxy-phenyl)-N-[(2-oxo-1H-pyridin-3-yl)sulfonyl]-2-(2,4,6-trimethylphenoxy)pyridine-3-carboxamide] |
| +++ (“+++” means <3 uM) | Cc1cc(C)c(Oc2nc(C)c(C)cc2C(=O)NS(=O)(=O)c2cccc(N)n2)c(C)c1 [Compound 841, N-[(6-amino-2-pyridyl)sulfonyl]-5,6-dimethyl-2-(2,4,6-trimethylphenoxy)pyridine-3-carboxamide] |

Further lines, the molecule ahead of its results:

| SMILES | EC30 |
| --- | --- |
| CC(C)Oc1ccc(-c2ccc(C(=O)NS(=O)(=O)c3cccc(N)n3)c(N3CCC4(CC3)OCc3ccccc34)n2)cn1 [Compound 818, N-[(6-amino-2-pyridyl)sulfonyl]-6-(6-isopropoxy-3-pyridyl)-2-spiro[1H-isobenzofuran-3,4′-piperidine]-1′-yl-pyridine-3-carboxamide] | +++ (“+++” means <3 uM) |
| CCOc1ccc(-c2ccc(C(=O)NS(=O)(=O)c3nccnc3N)c(-c3ccc(C)cc3)n2)cc1 [Compound 819, N-(3-aminopyrazin-2-yl)sulfonyl-6-(4-ethoxyphenyl)-2-(p-tolyl)pyridine-3-carboxamide] | + (“+” means greater than 10 uM) |
| Cc1ccc(-c2ccc(C(=O)NS(=O)(=O)c3nccnc3N)c(-c3ccc(C)cc3)n2)cc1 [Compound 820, N-(3-aminopyrazin-2-yl)sulfonyl-2,6-bis(p-tolyl)pyridine-3-carboxamide] | + (“+” means greater than 10 uM) |
| CNc1cc(S(=O)(=O)NC(=O)c2cc(C(C)(C)C)nn2Cc2c(C)cccc2C)ccn1 [Compound 821, 5-tert-butyl-2-[(2,6-dimethylphenyl)methyl]-N-[[12-(methylamino)-4-pyridyl]sulfonyl]pyrazole-3-carboxamide] | ++ (“++” means between 3 uM and 10 uM) |
| CCc1cccc(S(=O)(=O)NC(=O)c2cc(C(C)(C)C)nn2Cc2c(C)cc(C)cc2C)c1 [Compound 823, 5-tert-butyl-N-(3-ethylphenyl)sulfonyl-2-[(2,4,6-trimethylphenyl)methyl]pyrazole-3-carboxamide] | + (“+” means greater than 10 uM) |
| CC(C)COc1cc(F)cc(-c2ccc(C(=O)NS(=O)(=O)c3cccc(N)n3)c(OCC3(C)COC3)n2)c1 [Compound 824, N-[(6-amino-2-pyridyl)sulfonyl]-6-(3-fluoro-5-isobutoxy-phenyl)-2-[(3-methyloxetan-3-yl)methoxy]pyridine-3-carboxamide] | ++ (“++” means between 3 uM and 10 uM) |
| COc1cccnc1S(=O)(=O)NC(=O)C1(C)c2ccccc2CN1Cc1c(C)cc(C)cc1C (centres unmarked) [Compound 825, N-[(3-methoxy-2-pyridyl)sulfonyl]-1-methyl-2-[(2,4,6-trimethylphenyl)methyl]isoindoline-1-carboxamide] | ++ (“++” means between 3 uM and 10 uM) |
| CCCOc1cc(-c2ccc(C(=O)NS(=O)(=O)c3ccn[nH]3)c(N3[C@H](C)CC[C@@H]3C)n2)ccc1Cl [Compound 832, 6-(4-chloro-3-propoxy-phenyl)-2-[(2R,5S)-2,5-dimethylpyrrolidin-1-yl]-N-(1H-pyrazol-5-ylsulfonyl)pyridine-3-carboxamide] | +++ (“+++” means <3 uM) |
| CC(C)Oc1ccc(-c2ccc(C(=O)NS(=O)(=O)c3cccc(N)n3)c(N3CCCC3(C)C)n2)cn1 [Compound 834, N-[(6-amino-2-pyridyl)sulfonyl]-2-(2,2-dimethylpyrrolidin-1-yl)-6-(6-isopropoxy-3-pyridyl)pyridine-3-carboxamide] | +++ (“+++” means <3 uM) |
| CC(C)Oc1ccc(-c2ccc(C(=O)NS(=O)(=O)c3cccc(N)n3)c(N3CCC[C@H](C)C3)n2)cn1 [Compound 836, N-[(6-amino-2-pyridyl)sulfonyl]-6-(6-isopropoxy-3-pyridyl)-2-[(3S)-3-methyl-1-piperidyl]pyridine-3-carboxamide] | ++ (“++” means between 3 uM and 10 uM) |
| CC(C)COc1cc(F)cc(-c2ccc(C(=O)NS(=O)(=O)c3cccc(N)n3)c(N3CCCC(C)C3C)n2)c1 (centres unmarked) [Compound 837, N-[(6-amino-2-pyridyl)sulfonyl]-2-(2,3-dimethyl-1-piperidyl)-6-(3-fluoro-5-isobutoxy-phenyl)pyridine-3-carboxamide] | +++ (“+++” means <3 uM) |
| Cc1cc(C)c(CN2CCc3ccccc3CC2C(=O)NS(=O)(=O)c2cccc(NCCO)n2)c(C)c1 (centres unmarked) [Compound 838, N-[[6-(2-hydroxyethylamino)-2-pyridyl]sulfonyl]-3-[(2,4,6-trimethylphenyl)methyl]-1,2,4,5-tetrahydro-3-benzazepine-4-carboxamide] | ++ (“++” means between 3 uM and 10 uM) |
| Cc1cc(C)c(CN2C(C(=O)NS(=O)(=O)c3cc(N)ccc3C)c3ccccc3C2(C)C)c(C)c1 (centres unmarked) [Compound 840, N-(5-amino-2-methyl-phenyl)sulfonyl-3,3-dimethyl-2-[(2,4,6-trimethylphenyl)methyl]isoindoline-1-carboxamide] | +++ (“+++” means <3 uM) |
| CC(C)COc1cc(F)cc(-c2ccc(C(=O)NS(=O)(=O)c3nc(N)cs3)c(N3CC(C)CC3(C)C)n2)c1 (centres unmarked) [Compound 842, N-(4-aminothiazol-2-yl)sulfonyl-6-(3-fluoro-5-isobutoxy-phenyl)-2-(2,2,4-trimethylpyrrolidin-1-yl)pyridine-3-carboxamide] | +++ (“+++” means <3 uM) |
| CCOC1CCCN(c2nc(-c3cc(F)cc(OCC(C)C)c3)ccc2C(=O)NS(=O)(=O)c2ccn[nH]2)C1 (centres unmarked) [Compound 843, 2-(3-ethoxy-1-piperidyl)-6-(3-fluoro-5-isobutoxy-phenyl)-N-(1H-pyrazol-5-ylsulfonyl)pyridine-3-carboxamide] | ++ (“++” means between 3 uM and 10 uM) |
